Laboratory results reported in US20240016933A1, “Methods of Anchoring or Reconstituting Active Molecules on Metabolically Labeled Cells” (The General Hospital Corporation, priority 2020, published 2024).

Experiments:
Assay type in all cases: cell-based
[1] = tested on: HeLa cells; test: Placement of trastuzumab mimotope on azide-modified cells, flow analysis; details: AzNAM 100 μM for 24 hours
Method: (§1) Jurkat and HeLa cells were cultured for three days in their optimal media (RPMI-10% FBS/DMEM-10% FBS, respectively) in 6-well plates to reach a state of sub-confluency. AzNAM (from 100 mM DMSO stock) was added to designated wells to a […] of 100 μM. Control wells received equal volumes of DMSO only. After 24 hours, cells were harvested (directly for the non-adherent Jurkat cells, and with Cell Stripper reagent for HeLa cells), and washed in PBS. […] Cells treated with the DBCO-Jmim peptide were then subjected to standard staining with Trastuzumab (BioVision), followed by secondary staining with FITC-conjugated goat-anti-human kappa chain antibody. During the staining procedure, the control washed DBCO-FAM treated cells were kept on ice. Finally, all cells were subjected to flow cytometric analysis.

[2] = tested on: Jurkat cells; test: as above; details: AzNAM 100 μM for 24 hours
Method: as §1

[3] = tested on: HeLa cells; test: Surface azide labeling of HeLa cells with AzNAM, DBCO-FAM fluorescence by flow cytometry; details: AzNAM 125 μM for 20 hours, versus cells receiving no azide-modified sugar
Method: In separate cultures, HeLa cells were added to wells of a 12-well plate at 10,000 cells/well, and cultured for 72 hours under normal conditions. The wells were washed with 1 ml of PBS, and 0.5 ml of DMEM-10% FBS was added. AzNAM was added to a final concentration of 125 μM, with cells receiving no azide-modified sugar as controls. After 20 hours, cells were harvested with CellStripper (250 μl/well), washed with PBS, and subjected to flow analysis.

[4] = tested on: HeLa cells; test: Surface azide labeling of HeLa cells with AzNAM, DBCO-FAM fluorescence read in plate reader; details: AzNAM 10-125 μM for 20 hours, then 10 μM DBCO-FAM for 1 hour
Method: Initially, cells were cultured in a suitable culture vessel such that their level of confluency at the time of addition of the azide-modified sugar, AzNAM, was not more than 80%.
In particular, HeLa cells were plated in 6-well plates (2.5×10^4 cells/well) and incubated for 48 hours in DMEM-10% FBS medium in a standard 5% CO2 atmosphere. Medium from each well was removed, and each well was washed with 2 ml of phosphate buffered saline (PBS), and fresh DMEM-FBS (1 ml) added. Subsequently, varying amounts of AzNAM (solubilized in DMSO) were added to the wells in small (10 μl) volumes to produce the desired final concentrations in the range 10-125 μM. After an additional 20 hours incubation, the medium in each well was removed, and the wells were washed with 2 ml of PBS, followed by addition of 1 ml of PBS. Then, a fluorescent azide reactive molecule, DBCO-FAM (Broadpharm), was directly added to each well to produce a final concentration of 10 μM.
Plates with added DBCO-FAM were protected from bright light and incubated for 1 hour at room temperature. Supernatants in each well were removed, and each well was washed twice with 2 ml of PBS. […] After pelleting and washing in PBS, cells were resuspended in 150 μl of PBS and counted. Defined numbers in 50 μl volumes in a 96-well Blackwell plate (Corning) were assayed for fluorescence in a fluorescent plate reader (Tecan).

[5] = then 10 μM DBCO-Jmim for 1 hour, trastuzumab plus FITC goat-anti-human kappa, versus DMSO controls

In the case of azido-N-acetylmannosamine [AzNAM], the “fluorescence after metabolic labeling and DBCO-FAM treatment (flow analysis)” value ([1]; then 10 μM DBCO-FAM for 1 hour) is reported as “positive fluorescence”, the “staining with trastuzumab (flow analysis)” value [1, 5] is reported as “strong staining with trastuzumab” and the “fluorescence after metabolic labeling and DBCO-FAM treatment (flow analysis)” value ([2]; then 10 μM DBCO-FAM for 1 hour) is reported as “positive fluorescence”. For the same substance, the “staining with trastuzumab (flow analysis)” value [2, 5] was “strong staining with trastuzumab”, the “flow analysis peak shift (DBCO-FAM fluorescence)” value [3] was “marked and well-demarcated peak shifts” and the “cell-associated fluorescence (96-well plate format)” value [4] was “cell-associated fluorescence increased as a function of the levels of AzNAM”.
